In ChEMBL document CHEMBL6103638, “Dual Modulator of FXR and HSD17B13: Revitalizing FXR Therapies in MASH” (J Med Chem, 2025):

Molecular target: T1, Bile acid receptor (Homo sapiens, UniProt Q96RI1)
T1 sequence (Q96RI1 whole entry): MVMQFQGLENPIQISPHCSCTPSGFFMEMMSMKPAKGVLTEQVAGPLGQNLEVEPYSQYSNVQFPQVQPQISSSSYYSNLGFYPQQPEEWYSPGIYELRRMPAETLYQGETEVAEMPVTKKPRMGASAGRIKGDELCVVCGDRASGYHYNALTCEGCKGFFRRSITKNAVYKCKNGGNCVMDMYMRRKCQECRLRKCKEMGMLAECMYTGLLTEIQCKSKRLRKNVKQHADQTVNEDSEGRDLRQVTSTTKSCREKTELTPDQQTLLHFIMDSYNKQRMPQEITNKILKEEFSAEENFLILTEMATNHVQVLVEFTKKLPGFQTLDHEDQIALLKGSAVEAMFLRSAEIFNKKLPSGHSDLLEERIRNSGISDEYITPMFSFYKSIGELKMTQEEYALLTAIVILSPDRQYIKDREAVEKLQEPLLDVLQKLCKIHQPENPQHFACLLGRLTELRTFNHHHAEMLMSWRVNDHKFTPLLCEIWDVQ
Test: Agonist activity at FXR (unknown origin)

EC50: 780 nM
SMILES: CC(C)(C)c1ccc(-n2cnc3c(NC(=O)Cc4ccc(C(=O)O)cc4)cccc32)cc1
